Assay results from publication PMC3003262 (Drug development research, 2010).
Where two headings read alike, the source gives them in different places.

Assays:
[1] = biological target: T1, human CB1 P269A mutant receptor (Homo sapiens, UniProt P21554, P269A); assay: biochemical; type: binding
[2] = biological target: human CB1 H270A mutant receptor (Homo sapiens, UniProt P21554, H270A); assay: biochemical; type: binding
[3] = biological target: T2, human CB1 I271A mutant receptor (Homo sapiens, UniProt P21554, I271A); assay: biochemical; type: binding; details: for loss in affinity relative to wild-type receptor: I271A receptor vs WT
T2 sequence (P21554 whole entry I271A): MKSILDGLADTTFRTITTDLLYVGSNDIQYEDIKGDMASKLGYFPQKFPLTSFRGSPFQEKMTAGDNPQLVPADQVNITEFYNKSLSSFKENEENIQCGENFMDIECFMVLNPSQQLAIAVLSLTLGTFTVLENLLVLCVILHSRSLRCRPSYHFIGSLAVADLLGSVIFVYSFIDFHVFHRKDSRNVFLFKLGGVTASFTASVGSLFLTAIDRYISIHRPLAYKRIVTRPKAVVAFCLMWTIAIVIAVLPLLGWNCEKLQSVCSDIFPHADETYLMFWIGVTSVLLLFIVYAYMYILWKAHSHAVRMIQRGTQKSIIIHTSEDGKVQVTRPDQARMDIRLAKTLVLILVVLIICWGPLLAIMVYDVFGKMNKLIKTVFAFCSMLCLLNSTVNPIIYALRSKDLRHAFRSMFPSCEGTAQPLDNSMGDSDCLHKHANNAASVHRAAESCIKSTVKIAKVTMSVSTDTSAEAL

[4] = biological target: T3, human CB1 wild-type (WT) receptor (Homo sapiens, UniProt P21554); assay: Competition binding with [3H]SR141716A, wild-type CB1 membranes
T3 sequence (P21554 whole entry): as the sequence (P21554 whole entry I271A) above, with A271I counted along it

[5] = biological target: T4, human CB1 F268W mutant receptor (Homo sapiens, UniProt P21554, F268W); assay: biochemical; type: binding; details: for loss in affinity relative to wild-type receptor: F268W receptor vs WT
T4 sequence (P21554 whole entry F268W): as the sequence (P21554 whole entry I271A) above, with F268W, A271I counted along it

[6] = biological target: T4, human CB1 F268W mutant receptor; details: cited from earlier work
[7] = biological target: T2, human CB1 I271A mutant receptor; details: cited from earlier work
[8] = biological target: T3, human CB1 wild-type (WT) receptor; details: cited from earlier work
[9] = biological target: T1, human CB1 P269A mutant receptor; details: cited from earlier work

Sequence of human CB1 H270A mutant receptor (P21554 whole entry H270A): as the sequence (P21554 whole entry I271A) above, with H270A, A271I counted along it
T1 sequence (P21554 whole entry P269A): as the sequence (P21554 whole entry I271A) above, with P269A, A271I counted along it

SMILES: CS(=O)(=O)N(c1cc(F)cc(F)c1)C1CN(C(c2ccc(Cl)cc2)c2ccc(Cl)cc2)C1 [AVE1625, N-{1-[bis(4-chloro-phenyl)-methyl]azetidin-3-yl}-N-(3,5-difluorophenyl)methanesulfonamide]
- Ki [1]: 0.88 nM
- Ki [2]: 1.2 nM
- Ki [3]: 1.8 nM
- loss in affinity relative to wild-type receptor [3]: 3 fold
- Ki [4]: 0.64 nM
- Ki [5]: 2.2 nM
- loss in affinity relative to wild-type receptor [5]: 3 fold

SMILES: N#Cc1c(Oc2cccc(OS(=O)(=O)CCCC(F)(F)F)c2)cccc1C(F)(F)F [BAY593074, 3-[2-cyano-3-(trifluoromethyl)phenoxy]phenyl-4,4,4-trifluoro-1-butanesulfonate]
- Ki [1]: 341 nM
- Ki [2]: 412 nM
- Ki [3]: 2870 nM
- binding affinity diminished relative to wild-type receptor (up to) [3]: up to 12 fold
- Ki [4]: 249 nM
- Ki [5]: 1860 nM

SMILES: CCCCCCC(C)(C)c1cc(O)c2c(c1)OC(C)(C)[C@@H]1CC=C(CO)C[C@@H]21 [HU-210, (−)-11-hydroxydimethylheptyl-Δ8-tetrahydrocannabinol]
- Ki [6]: 1670 nM
- Ki [2]: 13.8 nM
- Ki [7]: 310 nM
- Ki [8]: 3.7 nM
- Ki [9]: 22.6 nM

SMILES: CCCCC(C)(C)c1cc(O)c2c(c1)OC(C)(C)C1CC=C(C)CC21 (stereo not drawn) [JWH061, 3-(1′,1′-dimethylpentyl)-Δ;8-tetrahydrocannabinol]
- Ki [1]: 1730 nM
- Ki [2]: 373 nM
- Ki [3]: 773 nM
- Ki [5]: 3460 nM

SMILES: CC1=CCC2C(C1)c1c(O)cc(C(C)(C)C)cc1OC2(C)C (stereo not drawn) [JWH179, 3-(1′,1′-dimethylethyl)-Δ8-tetrahydrocannabinol]
- Ki [1]: 798 nM
- Ki [2]: 90 nM
- Ki [3]: 194 nM
- Ki [5]: 1110 nM

SMILES: O=C(NN1CCCCC1)c1nn(-c2ccc(Cl)cc2Cl)c2c1CCCc1cc(Cl)ccc1-2 [NESS0327]
- Ki [1]: 3 nM
- Ki [2]: 6.1 nM
- Ki [3]: 11.2 nM
- Ki [5]: 21 nM
- loss in affinity relative to wild-type receptor [5]: 5 fold

SMILES: CCCCCc1ccc(-n2nc(C(=O)NN3CCCCC3)c(C)c2-c2ccc(Cl)cc2)cc1 [O-1255]
- Ki [1]: 74.7 nM
- Ki [2]: 113 nM
- Ki [3]: 460 nM
- loss in affinity relative to wild-type receptor [3]: 6 fold
- Ki [5]: 310 nM
- loss in affinity relative to wild-type receptor [5]: 4 fold

SMILES: CCCCCc1ccc(-c2c(C)c(C(=O)NN3CCCCC3)nn2-c2ccc(Cl)cc2Cl)cc1 [O-1302, [I]N[/I]-(piperidin-1-yl)-1-(2,4-dichlorophenyl)-4-methyl-5-(4-pentylphenyl)-1H-pyrazole-3-carboxamide]
- Ki [1]: 1.1 nM
- Ki [2]: 2.6 nM
- Ki [3]: 38.4 nM
- Ki [5]: 26.2 nM

SMILES: CCCCC(C)c1ccc(-c2c(-c3ccc(Cl)cc3Cl)nn(N3CCCCC3)c2C)cc1 (stereo not drawn) [O-1690, N-(N-piperdyl)-3-(2,4-dichlrophenyl)-4-(4′-(1′-methylpentyl)phenyl)-5-methylpyrazole]
- Ki [1]: 0.96 nM
- Ki [2]: 2 nM
- Ki [3]: 77.3 nM
- Ki [5]: 23.3 nM

SMILES: CC1=CC[C@@H]2[C@@H](C1)c1ccc(CC#CCCCNS(C)(=O)=O)cc1OC2(C)C [O-2050, (6aR,10aR)-3-(1-methanesulfonylamino-4-hexyn-6-yl)-6a,7, 10,10a-tetrahydro-6,6,9-trimethyl-6H-dibenzo[b,d]pyran]
- Ki [1]: 68.6 nM
- reduced affinity relative to wild-type receptor ([1]; P269A receptor vs WT): 20 fold
- Ki [2]: 40.2 nM
- reduced affinity relative to wild-type receptor ([2]; H270A receptor vs WT): 12 fold
- Ki [3]: 166 nM
- loss in affinity relative to wild-type receptor [3]: 49 fold
- Ki [4]: 3.4 nM
- Ki [5]: 148 nM
- loss in affinity relative to wild-type receptor [5]: 44 fold
